The subject of series [1] is Rattus norvegicus. In words: Antidiabetic activity in streptozotocin-induced Albino Wistar rat diabetic model assessed as decrease in blood glucose level at 36 mg/kg, po measured after 15 days by glucose oxidase method. Also on record: dose 36 mg/kg. Format: functional, organism-based.
Series [2] is filed under the species Rattus norvegicus. In words: Hepatotoxicity in streptozotocin-induced in Albino Wistar rat diabetic model assessed increase in sinusoidal dilatation by Haematoxylin/Eosin staining-based microscopy. As to conditions: in vivo. Format: toxicity, organism-based.
For series [3], the species on record is Rattus norvegicus. The experiment in a line: Hepatotoxicity in streptozotocin-induced in Albino Wistar rat diabetic model assessed increase in portal triad Inflammation by Haematoxylin/Eosin staining-based microscopy. Format: toxicity, organism-based. As to conditions: in vivo.
The species entered for series [4] is Rattus norvegicus. In words: Reduction in streptozotocin-induced alkaline phosphatase level in Albino Wistar rat diabetic model. Format: functional, organism-based.
Series [5] is filed under the species Rattus norvegicus. The experiment in a line: Reduction in streptozotocin-induced alanine transaminase level in Albino Wistar rat diabetic model. Format: functional, organism-based.
The species entered for series [6] is Rattus norvegicus. The experiment in a line: Toxicity in streptozotocin-induced in Albino Wistar rat diabetic model assessed as liver damage by Haematoxylin/Eosin staining-based microscopy. Format: organism-based. As to conditions: in vivo.
The species entered for series [7] is Rattus norvegicus. The experiment in a line: Hepatotoxicity in streptozotocin-induced in Albino Wistar rat diabetic model assessed as fatty changes in hepatocyte by Haematoxylin/Eosin staining-based microscopy. Format: toxicity, organism-based. Particulars: hepatocytes.
The species named for series [8] is Rattus norvegicus. The experiment in a line: Hepatotoxicity in streptozotocin-induced in Albino Wistar rat diabetic model assessed as hepatocyte swelling by Haematoxylin/Eosin staining-based microscopy. Format: toxicity, organism-based. As to conditions: hepatocytes.
For series [9], the species on record is Rattus norvegicus. In words: Reduction in streptozotocin-induced aspartate aminotransferase level in Albino Wistar rat diabetic model. Format: functional, organism-based.
Series [10] deals with Rattus norvegicus. The experiment in a line: Antidiabetic activity in streptozotocin-induced Albino Wistar rat diabetic model assessed as improvement in body weight at 36 mg/kg, po measured after 15 days by glucose oxidase method. Also on record: dose 36 mg/kg. Format: functional, organism-based.
For series [11], the species on record is Rattus norvegicus. In words: Toxicity in Albino Wistar rat assessed as change in body weight relative to control. Format: organism-based. As to conditions: in vivo.
Series [12] is filed under the species Rattus norvegicus. The experiment in a line: Antidiabetic activity in Albino Wistar rat assessed as improvement in insulin resistance measured at 90 mins after insulin injection by insulin tolerance test. Format: functional, organism-based.
The species named for series [13] is Rattus norvegicus. In words: Antidiabetic activity in Albino Wistar rat assessed as reduction of blood glucose level measured at 120 mins after glucose injection by oral glucose tolerance test. Format: functional, organism-based.

The structures appear in SMILES notation. Activity calls are given as the source filed them. The calls are words filed in the database; no cut-off is given here.

From ChEMBL document CHEMBL3297740, “Thiazolidine-2,4-diones derivatives as PPAR-γ agonists: synthesis, molecular docking, in vitro and in vivo antidiabetic activity with hepatotoxicity risk evaluation and effect on PPAR-γ gene expression” (Bioorg Med Chem Lett, 2014) come the findings set out here.

With `COc1ccc2c(c1)C(=O)C(CC1SC(=O)NC1=O)CO2` (stereo unspecified), the inhibition entry in the series with Rattus norvegicus [1] was “Active”.

Consider `O=C1NC(=O)C(CC2COc3c(Cl)cc(Cl)cc3C2=O)S1` (stereo unspecified), for which the inhibition result in the series with Rattus norvegicus [1] was “Active”.

As to `O=C1NC(=O)C(CC2COc3ccc(Br)cc3C2=O)S1` (stereo unspecified), the inhibition result in the series with Rattus norvegicus [1] is “Active”.

As for `O=C1NC(=O)C(CC2COc3ccc(F)cc3C2=O)S1` (stereo unspecified), the inhibition result in the series with Rattus norvegicus [1] was “Active”.

In the case of `Cc1ccc2occ(CC3SC(=O)NC3=O)c(=O)c2c1` (stereo unspecified), the inhibition result in the series with Rattus norvegicus [1] is “Active”.

In the case of `O=C1NC(=O)C(Cc2coc3c(Cl)cc(Cl)cc3c2=O)S1` (stereo unspecified), the Activity entry in the series filed under Rattus norvegicus [2] was “Toxic”; in the series listed under Rattus norvegicus [3], “Non-toxic”; in the series filed under Rattus norvegicus [6], “Toxic”; in the series listed under Rattus norvegicus [7], “Non-toxic”; in the series filed under Rattus norvegicus [8], “Non-toxic”. Further, the inhibition result with Rattus norvegicus [1] was “Active”. For the same molecule, the result in the series filed under Rattus norvegicus [4], in the series filed under Rattus norvegicus [5] and in the series filed under Rattus norvegicus [9] was Active.

Turning to `COc1cccc2c1C(=O)C(CC1SC(=O)NC1=O)CO2` (stereo unspecified), the inhibition entry in the series with Rattus norvegicus [1] is “Active”.

Regarding `COc1ccc2occ(CC3SC(=O)NC3=O)c(=O)c2c1` (stereo unspecified), the Activity result in the series filed under Rattus norvegicus [2], in the series listed under Rattus norvegicus [3], in the series listed under Rattus norvegicus [6], in the series listed under Rattus norvegicus [7] and in the series filed under Rattus norvegicus [8] was “Non-toxic” throughout. For the same molecule, the inhibition result in the series with Rattus norvegicus [1] was “Active”. The result in the series listed under Rattus norvegicus [4], in the series filed under Rattus norvegicus [5] and in the series filed under Rattus norvegicus [9] was Active.

For the molecule `O=C1NC(=O)C(Cc2coc3ccc(Br)cc3c2=O)S1` (stereo unspecified), the Activity result was “Toxic” in the series listed under Rattus norvegicus [2]; “Non-toxic” in the series filed under Rattus norvegicus [3]; “Toxic” in the series listed under Rattus norvegicus [6]; “Non-toxic” in the series listed under Rattus norvegicus [7]; “Non-toxic” in the series filed under Rattus norvegicus [8]. For the same molecule, the inhibition entry with Rattus norvegicus [1] is “Active”. Moreover, the result in the series listed under Rattus norvegicus [4], in the series filed under Rattus norvegicus [5] and in the series filed under Rattus norvegicus [9] was Active.

Take `Cc1ccc2c(c1)C(=O)C(CC1SC(=O)NC1=O)CO2` (stereo unspecified): the inhibition result with Rattus norvegicus [1] is “Active”.

As to `CCc1ccc(CCOc2ccc(CC3SC(=O)NC3=O)cc2)nc1` (stereo unspecified) [PIOGLITAZONE], the Activity result in the series filed under Rattus norvegicus [2] is reported as “Toxic”; in the series listed under Rattus norvegicus [3], “Non-toxic”; in the series filed under Rattus norvegicus [7], “Non-toxic”; in the series filed under Rattus norvegicus [8], “Non-toxic”.

As for `O=C1NC(=O)C(Cc2coc3ccc(F)cc3c2=O)S1` (stereo unspecified), the Activity entry in the series filed under Rattus norvegicus [2] is “Toxic”; in the series filed under Rattus norvegicus [3], “Non-toxic”; in the series listed under Rattus norvegicus [6] it was “Toxic”; in the series listed under Rattus norvegicus [7] it was “Non-toxic”; in the series filed under Rattus norvegicus [8] it was “Non-toxic”. Besides, the inhibition result in the series with Rattus norvegicus [1] is “Active”. Moreover, the result in the series listed under Rattus norvegicus [4], in the series filed under Rattus norvegicus [5] and in the series listed under Rattus norvegicus [9] was Active.

In the case of `O=C1NC(=O)C(Cc2coc3ccc(Cl)cc3c2=O)S1` (stereo unspecified), the Activity entry in the series filed under Rattus norvegicus [2], in the series listed under Rattus norvegicus [3], in the series listed under Rattus norvegicus [11], in the series listed under Rattus norvegicus [6], in the series listed under Rattus norvegicus [7] and in the series filed under Rattus norvegicus [8] was “Non-toxic” in each case. Besides, the inhibition result in the series on Rattus norvegicus [1] and in the series filed under Rattus norvegicus [13] was “Active” throughout. For the same molecule, the result in the series with Rattus norvegicus [10], in the series listed under Rattus norvegicus [4], in the series listed under Rattus norvegicus [5], in the series listed under Rattus norvegicus [12] and in the series filed under Rattus norvegicus [9] was Active.

Regarding `O=C1NC(=O)C(Cc2coc3ccccc3c2=O)S1` (stereo unspecified), in the series on Rattus norvegicus [1], the inhibition result is “Active”.
